In patent US20090137034A1, “METHODS FOR PERFUSION AND PLATING OF PRIMARY HEPATOCYTES AND A MEDIUM THEREFORE” (MASSACHUSETTS INSTITUTE OF TECHNOLOGY, priority 2002, published 2009):

Columns and labels:
CYP 1A1 = CYP 1A1 inducibility/P450 function in primary hepatocytes in collagen sandwich culture (EROD assay, 3-MC induction); assay type: cell-based; conditions: mechanism under investigation
Experimental: To study the effect of different compounds on the function of hepatocyte function and phenotype, hepatocytes were isolated according to techniques well known in the art and cultured in a collagen sandwich configuration. Hepatocytes were induced with the addition of 2 nM 3-methylcholanthrene (3-MC). CYP 1A1 was measured using the EROD assay as described in Pearce et al., 1996. Albumin secretion was measured using ELISA, as described in Dunn et al., 1991. Western blot analysis was performed using techniques well known in the art, using an antibody to CYP1A1.

activated macrophages = conditions: stated as an observation, no source given; cited from earlier work

Q: Which P450 function (CYP 1A1) does the source give for `N[C@H]1C(O)O[C@H](CO)[C@@H](O)[C@@H]1O` (some centres unmarked) [glucosamine] here?
A: protection of P450 function

Q: What about the NO synthesis (activated macrophages) of the same molecule?
A: inhibits NO synthesis
